Measured values published in patent US20220273707A1, “COMPOSITIONS AND METHODS FOR TREATING CANINE PARVOVIRUS INFECTION” (MoxxiTech, LLC, priority 2021, published 2022).

Assays:
Canine parvovirus (CPV) = assay: Treatment of puppies naturally infected with CPV, standard veterinary protocol supplemented with oral ferric citrate solution; format: in vivo, dog; conditions: for survival rate: twice daily for up to five days, monitored for 14 days
Procedure: Puppies presenting with symptoms of CPV infection, including vomiting, diarrhea, hematochezia, lethargy, and depression, were tested for CPV infection using IDEXX Laboratories SNAP® Parvo Test per manufacturer's protocols.

[1] = test system: Canine parvovirus type 2 (CPV2); assay: Viability assay of canine fibroblast cells infected with CPV2 (trypan blue exclusion); format: cell-based; conditions: 72 hours post treatment; for cell viability after infection with CPV: added 1 hour after CPV2 infection
Procedure: (§1) Methods: Canine fibroblast cells were cultured in Dulbecco's modified Eagle's medium (DMEM) supplemented with 5% fetal bovine serum, 2 mM L-glutamine, 0.1 mM MEM non-essential amino acids, 1 mM sodium pyruvate, 0.05 mM 2-mercaptoethanol, 10 mM HEPES, 100 units/mL penicillin, and 100 mcg/mL streptomycin, at 38° C. with 5% CO2. Canine parvovirus type 2 (CPV2) was isolated from a fecal sample collected from a naturally infected dog. The virus was propagated on canine fibroblast cells and a titer of 10^13.37 tissue culture infectious doses (TCID50)/mL was used for viability assays. For viability assays, cells were routinely passaged and seeded in 96 well plates at 5×10^4 cells/mL in 200 μL complete DMEM media and incubated overnight at 38° C. with 5% CO2. The media was then removed and cells were infected with CPV2 for 1 hour at 38° C. with 5% CO2. […] A minimum of 3 independent experiments were performed for each assay.
72 hours post treatment, cells were assayed for viability. […] Data shown are Mean±SEM, pooled from three independent experiments.

Canine fibroblast cells = assay: Viability of canine fibroblast cells in the absence of CPV infection (trypan blue exclusion); conditions: 1 μM, 72 hours
Procedure: as §1
Data shown are Mean±SEM, pooled from three independent experiments.

Compound	survival rate (Canine parvovirus (CPV); 0.22 mg/kg orally, 1/3) [%]	mortality of the smallest puppies (<5 lbs) (Canine parvovirus (CPV); 0.22 mg/kg, lowest concentration tested)	survival rate (Canine parvovirus (CPV); 1.1 mg/kg orally, 2/5) [%]	survival rate (Canine parvovirus (CPV); 2.2 mg/kg (highest concentration) orally, 5/5) [%]	survival from natural infections with CPV with increasing concentrations (Canine parvovirus (CPV); increasing concentrations of ferric citrate (FIG. 3))	cell viability after infection with CPV ([1]; 1 μM)	cell viability after infection with CPV ([1]; 10 μM)	viability of treated versus untreated cells in the absence of CPV infection (Canine fibroblast cells)	decrease in survival compared to cells infected with CPV ([1]; 1 μM, CPV-infected cells) [%]	decrease in survival compared to the untreated cells ([1]; 1 μM, CPV-infected cells) [%]
ferric citrate	33.33	not able to prevent mortality	40	100	increased survival	significant increase	significant increase			
CC(=O)N(O)CCCCCNC(=O)CCC(=O)N(O)CCCCCNC(=O)CCC(=O)N(O)CCCCCN [deferoxamine, reference compound]								no significant difference	23	45
